Assay results taken from US4049809A, “Solution of a oxazepine for oral or parenteral administration” (priority 1976, dated 1977).
≈ marks a conversion by molar mass, not a printed value. Where two headings read alike, the source gives them in different places.

Key:
[1] = format: physicochemical; settings: 10 mg/ml, pH 6.0, 15 months
Description: (§1) The favorable stability of the oral and parenteral solutions of this invention have been established in numerous tests. The criterion of stability being the lack of precipitation of the hydroylsis product 2-chloro-dibenz[b,f][1,4]oxazepin-11(1OH)-one. […]

[2] = Second stability study, parenteral solution 15 mg/ml; format: physicochemical; settings: 70% propylene glycol, pH 6.0
Description: as §1

[3] = Crystallization/solubility behaviour with and without Polysorbate 80; format: physicochemical
[4] = Solubility and stability in water and near neutral/basic liquids; format: physicochemical
[5] = Third stability study, parenteral solution 20 mg/ml; format: physicochemical; settings: 20 mg/ml parenteral solution
Description: The favorable stability of the oral and parenteral solutions of this invention have been established in numerous tests. The criterion of stability being the lack of precipitation of the hydroylsis product 2-chloro-dibenz[b,f][1,4]oxazepin-11(1OH)-one. […] Three such studies follow:
In the third test a parenteral solution of the active ingredient at a concentration of 20 mg/ml was prepared as described in the second stability study.

[6] = Stability of solutions: lack of precipitation of the hydrolysis product; format: physicochemical; settings: in the new solutions; below this concentration
Description: as §1

[7] = Toxicity of hydrolysis product (statement)

CN1CCN(C2=Nc3ccccc3Oc3ccc(Cl)cc32)CC1 [2-chloro-11-(4-methyl-1-piperazinyl)-dibenz[b,f][1,4]oxazepine]
Hydrolysis Product ([1]; 50% propylene glycol): 120 µg/mL | Hydrolysis Product ([1]; 60% propylene glycol): 110 µg/mL | Hydrolysis Product ([1]; 70% propylene glycol): 100 µg/mL | Hydrolysis Product ([2]; 42° C, 1 Month): 124 µg/mL | Potency ([2]; 42° C, 1 Month): 16.0 mg/mL (≈ 48.8 mM) | Hydrolysis Product ([2]; 42° C, 2 Months): 192 µg/mL | Potency ([2]; 42° C, 2 Months): 14.5 mg/mL (≈ 44.2 mM) | Hydrolysis Product ([2]; 42° C, 4 Months): 340 µg/mL | Potency ([2]; 42° C, 4 Months): 15.5 mg/mL (≈ 47.3 mM) | Hydrolysis Product ([2]; 56° C, 1 Month): 320 µg/mL | Potency ([2]; 56° C, 1 Month): 16.0 mg/mL (≈ 48.8 mM) | Hydrolysis Product ([2]; 56° C, 2 Months): 580 µg/mL | Potency ([2]; 56° C, 2 Months): 14.5 mg/mL (≈ 44.2 mM) | Hydrolysis Product ([2]; 56° C, 2 Weeks): 163 µg/mL | Potency ([2]; 56° C, 2 Weeks): 15.3 mg/mL (≈ 46.7 mM) | Hydrolysis Product ([2]; 70° C, 1 Week): 370 µg/mL | Physical Appearance ([2]; 70° C, 1 Week): Precipitate | Potency ([2]; 70° C, 1 Week): 15.0 mg/mL (≈ 45.8 mM) | Hydrolysis Product ([2]; 70° C, 2 Weeks): 467 µg/mL | Potency ([2]; 70° C, 2 Weeks): 14.8 mg/mL (≈ 45.1 mM) | Hydrolysis Product ([2]; Fresh): 26 µg/mL | Physical Appearance ([2]; Fresh): Clear | Potency ([2]; Fresh): 16.0 mg/mL (≈ 48.8 mM) | Hydrolysis Product ([2]; Room Temp., 2 Months): 55 µg/mL | Potency ([2]; Room Temp., 2 Months): 15.4 mg/mL (≈ 47 mM) | Hydrolysis Product ([2]; Room Temp., 4 Months): 67 µg/mL | Potency ([2]; Room Temp., 4 Months): 15.6 mg/mL (≈ 47.6 mM) | Hydrolysis Product ([2]; Room Temp., 6 Months): 94 µg/mL | Potency ([2]; Room Temp., 6 Months): 15.6 mg/mL (≈ 47.6 mM) | Hydrolysis Product ([2]; Room Temp., 11 Months): 142 µg/mL | Potency ([2]; Room Temp., 11 Months): 15.4 mg/mL (≈ 47 mM) | Hydrolysis Product ([2]; Room Temp., 13 Months): 144 µg/mL | Potency ([2]; Room Temp., 13 Months): 15.1 mg/mL (≈ 46.1 mM) | Hydrolysis Product ([2]; Room Temp., 18 Months): 260 µg/mL | Potency ([2]; Room Temp., 18 Months): 14.3 mg/mL (≈ 43.6 mM) | Effect of Polysorbate 80 on solubility level in 70% aqueous propylene glycol ([3]; 70% aqueous propylene glycol with Polysorbate 80): raises the solubility level | Effect of Polysorbate 80 on crystallization during intramuscular administration ([3]; 70% aqueous propylene glycol with Polysorbate 80 (about 2% to about 10%)): eliminates the crystallization | Crystallization when parenterally administered to body fluids ([3]; body fluids, pH about 7.0): exhibits a tendency to crystallize | Crystallization from neutral or basic media ([3]; neutral or basic media): crystallizes from neutral or basic media | Precipitation on dilution with non-acidic foods or beverages ([3]; oral concentrate without polysorbate 80): precipitates on dilution | Solubility in liquids having a basic or near neutral pH ([4]; basic or near neutral pH): low solubility | Solubility in water [4]: low solubility | Hydrolysis Product ([5]; 42° C, 1 Month): 146 µg/mL | Potency ([5]; 42° C, 1 Month): 21.8 mg/mL (≈ 66.5 mM) | Hydrolysis Product ([5]; 42° C, 2 Months): 232 µg/mL | Potency ([5]; 42° C, 2 Months): 20.5 mg/mL (≈ 62.5 mM) | Hydrolysis Product ([5]; 42° C, 4 Months): 436 µg/mL | Potency ([5]; 42° C, 4 Months): 20.2 mg/mL (≈ 61.6 mM) | Hydrolysis Product ([5]; 56° C, 1 Month): 374 µg/mL | Potency ([5]; 56° C, 1 Month): 20.6 mg/mL (≈ 62.8 mM) | Hydrolysis Product ([5]; 56° C, 2 Months): 732 µg/mL | Potency ([5]; 56° C, 2 Months): 19.4 mg/mL (≈ 59.2 mM) | Hydrolysis Product ([5]; 56° C, 2 Weeks): 185 µg/mL | Potency ([5]; 56° C, 2 Weeks): 21.0 mg/mL (≈ 64.1 mM) | Hydrolysis Product ([5]; 70° C, 1 Week): 480 µg/mL | Physical Appearance ([5]; 70° C, 1 Week): Precipitate | Potency ([5]; 70° C, 1 Week): 20.7 mg/mL (≈ 63.1 mM) | Hydrolysis Product ([5]; 70° C, 2 Weeks): 623 µg/mL | Potency ([5]; 70° C, 2 Weeks): 20.6 mg/mL (≈ 62.8 mM) | Hydrolysis Product ([5]; Fresh): 33.0 µg/mL | Physical Appearance ([5]; Fresh): Clear | Potency ([5]; Fresh): 21.6 mg/mL (≈ 65.9 mM) | Hydrolysis Product ([5]; Room Temp., 2 Months): 62.7 µg/mL | Potency ([5]; Room Temp., 2 Months): 21.1 mg/mL (≈ 64.4 mM) | Hydrolysis Product ([5]; Room Temp., 4 Months): 78 µg/mL | Potency ([5]; Room Temp., 4 Months): 22.3 mg/mL (≈ 68 mM) | Hydrolysis Product ([5]; Room Temp., 6 Months): 116 µg/mL | Potency ([5]; Room Temp., 6 Months): 20.8 mg/mL (≈ 63.5 mM) | Hydrolysis Product ([5]; Room Temp., 11 Months): 160 µg/mL | Potency ([5]; Room Temp., 11 Months): 20.7 mg/mL (≈ 63.1 mM) | Hydrolysis Product ([5]; Room Temp., 13 Months): 184 µg/mL | Potency ([5]; Room Temp., 13 Months): 20.6 mg/mL (≈ 62.8 mM) | Hydrolysis Product ([5]; Room Temp., 18 Months): 340 µg/mL | Potency ([5]; Room Temp., 18 Months): 20.5 mg/mL (≈ 62.5 mM)

O=C1Nc2ccccc2Oc2ccc(Cl)cc21 [2-chloro-dibenz[b,f][1,4]oxazepin-11(10H)-one]
Concentration at which crystallization of hydrolysis product does not occur [6]: below 500 mcg/ml | Toxicity [7]: nontoxic | Solubility in water [4]: extremely insoluable
